This is an account of results in patent publication US12421206B2, “Aryl-n-aryl derivatives for treating a RNA virus infection” (ABIVAX, priority 2018, dated 2025).

For the test, the system named is RSV A2. Kind of test: RSV inhibition (cytopathic effect inhibition) using Viral ToxGlo assay in HEp-2 cells. It is filed as cell-based. The conditions noted are these: human respiratory syncytial virus, RSV A2, MOI 0.5, HEp-2 cells, 72 h p.i. In a few lines:
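HEp-2 cells in EMEM with 2% FBS were infected with RSV A2 at MOI 0.5 immediately after compound (≤1% DMSO) and incubated 72 h at 37 °C. Viral ToxGlo luminescence gave % cytopathic effect inhibition versus virus control, plus cytotoxicity versus cell control; EC50 derived from dose-response.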
A general note: Cytopathic effects are the visible damage that an infection or toxin causes in cultured cells.
`Cc1cc(OCc2ccccn2)ccc1Nc1cccc(NC(=O)NCCC(C)C)c1` [Compound 68, 1-isopentyl-3-(3-((2-methyl-4-(pyridin-2-ylmethoxy)phenyl)amino)phenyl)urea]: the EC50 is 144 nM.

Consider `CCCC(C)NC(=O)c1cccc(Nc2ccc(OCc3ccccn3)cc2)c1` (centres unmarked) [Compound 64, N-(pentan-2-yl)-3-((4-(pyridin-2-ylmethoxy)phenyl)amino)benzamide], for which the EC50 is 341 nM.

Consider `Cc1cc(OCc2ccccn2)ccc1Nc1cccc(C(=O)NCCC2CCC2)c1` [Compound 46, N-(2-cyclobutylethyl)-3-((2-methyl-4-(pyridin-2-ylmethoxy)phenyl)amino)benzamide], for which the EC50 stood at 199 nM.

For the compound `Cc1cc(OCc2ccccn2)ccc1Nc1cccc(C(=O)NCCC2CC2)c1` [Compound 45, N-(2-cyclopropylethyl)-3-((2-methyl-4-(pyridin-2-ylmethoxy)phenyl)amino)benzamide], the EC50 is 280 nM.

For the compound `O=C(NCCC1CCCCC1)c1cccc(Nc2ccc(OCc3ccccn3)cc2)c1` [Compound 38, N-(2-cyclohexylethyl)-3-((4-(pyridin-2-ylmethoxy)phenyl)amino)benzamide], the EC50 was 281 nM.

The term EC50 denotes the concentration that produces a half-maximal response.
